The values that follow come from PubChem BioAssay (NCI).

By TGI is commonly meant the concentration giving total growth inhibition. Low readings indicate more potent growth arrest, high ones less potent growth arrest. The GI50 is the concentration that inhibits growth by half.

Test systems include K-562 leukemia; NCI-H23 lung; MALME-3M melanoma; EKVX NSCLC; OVCAR-4 ovarian; KM12 colon; SN12C renal; SF-539 CNS; SNB-75 CNS.
Holding throughout (test): DTP human tumour cell line panel, 48 h

Each structure is given as a SMILES string.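 Each compound was tested at five concentrations against cells in 96-well plates for 48 hours. GI50 is the concentration that inhibits growth by half. TGI: concentration producing complete growth inhibition.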 Bounds are passed on as bounds.

Regarding `CCN(CC)c1c(C(=O)/C=C/c2ccc(OC)cc2)c(-c2ccccc2)nn(C)c1=O`, the total growth inhibition concentration (TGI) in the assay on K-562 leukemia was 49.9 µM; with NCI-H23 lung, 34.6 µM; with MALME-3M melanoma it was 35.1 µM; in the assay on EKVX NSCLC, 69.6 µM; in the assay on OVCAR-4 ovarian, 58 µM; in the assay on KM12 colon it was 37.1 µM. The figures for the TGI in the assay on SN12C renal and in the assay with SF-539 CNS were 78.4 µM and 45.9 µM, respectively.
Regarding `CCOC(=O)N1CCN(C=S)CC1`, the total growth inhibition concentration (TGI) in the assay with K-562 leukemia, with NCI-H23 lung, in the assay on SNB-75 CNS, in the assay on MALME-3M melanoma, in the assay on EKVX NSCLC and with KM12 colon was > 100 µM throughout. The concentration for total growth inhibition (TGI) with SN12C renal and in the assay with SF-539 CNS was > 100 µM each time.
Regarding `O=C(O)C(SC(=S)c1ccc(C(=S)SC(C(=O)O)c2ccccc2)cc1)c1ccccc1` (stereo not given), the total growth inhibition concentration (TGI) with K-562 leukemia, in the assay on NCI-H23 lung, in the assay with SNB-75 CNS, with MALME-3M melanoma, in the assay with KM12 colon and with SN12C renal was > 100 µM throughout. In addition, in the assay on SF-539 CNS, the TGI is > 100 µM.
Consider `COc1ccc(-c2c[nH]c(C(=O)O)c2-c2cc(OC)c(OC)c(OC)c2)cc1`, for which the GI50 was 3.08 µM in the assay with K-562 leukemia; 7.77 µM in the assay with NCI-H23 lung; 4.37 µM in the assay on MALME-3M melanoma; 5.86 µM in the assay on EKVX NSCLC; 88.8 µM in the assay with OVCAR-4 ovarian; 4.59 µM with KM12 colon. Also, the GI50 is 7.94 µM in the assay with SN12C renal and 3.08 µM in the assay on SF-539 CNS. Moreover, the TGI in the assay on K-562 leukemia, with NCI-H23 lung, in the assay with MALME-3M melanoma, with EKVX NSCLC, in the assay with OVCAR-4 ovarian and in the assay on KM12 colon was > 100 µM throughout. Further, the results for the TGI with SN12C renal and with SF-539 CNS were > 100 µM and 15.6 µM, respectively.
In the case of `CCCCNc1nc(C#N)c(N)s1`, the TGI with K-562 leukemia, in the assay on NCI-H23 lung, with SNB-75 CNS, with MALME-3M melanoma, with OVCAR-4 ovarian and with KM12 colon was > 100 µM in each case. Also, the concentration for total growth inhibition (TGI) with SN12C renal and with SF-539 CNS was > 100 µM in each case.
Regarding `Oc1c(C(Nc2cccc3cccnc23)c2ccccc2)ccc2cccnc12` (stereo not given), the TGI with K-562 leukemia, in the assay on NCI-H23 lung, with MALME-3M melanoma, in the assay with EKVX NSCLC, in the assay on OVCAR-4 ovarian and in the assay with KM12 colon was > 100 µM throughout. For the same compound, the TGI in the assay with SN12C renal is > 100 µM; in the assay with SF-539 CNS, 39 µM.
On to `COC1CC(OS(=O)(=O)c2ccc([N+](=O)[O-])cc2)C(OC(=O)c2ccccc2)C(C)O1` (stereo not given), for which the TGI in the assay with K-562 leukemia, in the assay on NCI-H23 lung, in the assay with MALME-3M melanoma, in the assay with OVCAR-4 ovarian, in the assay with KM12 colon and in the assay with SN12C renal was > 100 µM each time. The TGI in the assay on SF-539 CNS was > 100 µM.
Regarding `Clc1ccc(C2SCc3nc4ccccc4n32)c(Cl)c1` (stereo not given), the total growth inhibition concentration (TGI) amounted to 39.6 µM in the assay with K-562 leukemia; 25.1 µM with NCI-H23 lung; 34.8 µM in the assay on SNB-75 CNS; 32.5 µM in the assay on MALME-3M melanoma; 24.9 µM with EKVX NSCLC; 29.4 µM with KM12 colon. Also, the TGI amounted to 28.1 µM with SN12C renal and 31.4 µM with SF-539 CNS.
For the compound `O=C([CH-]C(=O)c1ccccc1)c1ccccc1.O=C([CH-]C(=O)c1ccccc1)c1ccccc1.[La+3].[OH-].[OH3+]`, the GI50 with K-562 leukemia was 5.24 µM; in the assay on NCI-H23 lung, 12.2 µM; in the assay on SNB-75 CNS, 5.02 µM; in the assay on MALME-3M melanoma, 23 µM; in the assay on EKVX NSCLC it was 14.3 µM; in the assay with OVCAR-4 ovarian, 26.1 µM. In addition, the GI50 in the assay on SN12C renal was 18.4 µM. The total growth inhibition concentration (TGI) in the assay on K-562 leukemia was > 100 µM; in the assay with NCI-H23 lung, 48.6 µM; in the assay with SNB-75 CNS it was 21.6 µM; with MALME-3M melanoma, 69.5 µM; in the assay with EKVX NSCLC it was 51.9 µM; in the assay with OVCAR-4 ovarian, > 100 µM. In addition, the TGI with SN12C renal was 68 µM.
For the compound `Fc1ccc2c(c1)C1=NN(c3ccccc3)C(F)C1CO2` (stereo not given), the GI50 is 17.6 µM with K-562 leukemia; 11.2 µM with NCI-H23 lung; 9.01 µM with SNB-75 CNS; 5.64 µM in the assay on EKVX NSCLC; 7.72 µM in the assay with OVCAR-4 ovarian; 16.1 µM in the assay with KM12 colon. For the same compound, the GI50 in the assay on SN12C renal was 6.93 µM; in the assay on SF-539 CNS it was 6.62 µM. The total growth inhibition concentration (TGI) is > 50 µM with K-562 leukemia; 26.7 µM with NCI-H23 lung; 32 µM with SNB-75 CNS; 16.4 µM in the assay with EKVX NSCLC; 17.4 µM in the assay with OVCAR-4 ovarian; 45.6 µM with KM12 colon. The results for the TGI in the assay on SN12C renal and in the assay with SF-539 CNS were 14.7 µM and 14.9 µM, respectively.
